One data set has as its system MyoD reporter. In words: Luciferase reporter assay, MyoD reporter. The following applies: Mus musculus, C2C12, 24 h, C2C12 cells expressing reporter and TAZ WT, differentiation medium 24 hours. Format: cell-based. The protocol:
The effect and its degree on the activity of a reporter, derived from a transcription factor that interacts with TAZ in C2C12 cells, were evaluated. Specifically, C2C12 cells expressing luciferase reporters corresponding to MyoD, TEAD, SMAD and Pax3 and C2C12 cells expressing these luciferase reporters and TAZ were cultured in a culture medium added with IBS008738 or DMSO at a concentration of 10 μM, respectively. […] The line and the error bar indicate the average value and the standard error, *p<0.05, **p<0.01, ns refers to not significant.
Transfection of the luciferase reporters was performed to the C2C12 cells after being plated at 12-well plates (1×10^5 cells/well) and cultured overnight. As the luciferase reporters, pGL3 Myo-184- (MyoD-), 8×GT-IIC-δ51LucII- (TEAD-), 9×CAGA-MLP-(SMAD-), and p(PRS-1/-4)3- (Pax3-) were transfected to the cells alone or with TAZ. These reporter vectors were from Keiji Miyazawa (Yamanashi University), Hiroshi Sasaki (Kumamoto University) and Hiroki Kurihara (The University of Tokyo).
Immediately after the transfection, DMSO or IBS008738 was added at a concentration of 10 μM, respectively. After growing the cells to confluence, the cells were transferred to a differentiation medium with DMSO or IBS008738, and cultured for 24 hours before the luciferase assay.
In general terms: A reporter such as luciferase makes a cellular process visible.

Another data set concerns HCT116 cells. Description: Immunoblotting of EMT markers in HCT116 cells. Format: cell-based, human. How it is done:
(1) A431 cells, (epidermoid carcinoma), A549 cells (adenocarcinomic human alveolar basal epithelial cell) and HCT116 cells (human colon cancer) were treated with IBS008738 or DMSO, respectively, and evaluated by immunoblotting.
HEK293, A431, A549, HCT116, MCF7 and SW480 cells were cultured in Dulbecco's Modified Eagle Medium (DMEM) containing 10% fetal bovine serum (FBS), 10 mM HEPES-NaOH at pH 7.4, 100 U/ml penicillin and 100 mg/I streptomycin under 5% CO2 at 37° C.
For orientation: Immunoblotting shows a protein as a band on a membrane.

The test system of the next data set is TAZ. In words: Quantitative real-time PCR, TAZ. Format: cell-based, mouse. The following applies: C2C12 cells, 10 μM; for Normarized mRNA abundance, TAZ: listed as IBS008738. How it is done: (§1) (1) Quantitative real-time PCR was performed with C2C12 cells immediately before the induction of muscle formation (0 h), and after culturing under differentiation condition in a culture medium added with IBS008738 or DMSO at a concentration of 10 μM for 24 hours (24 h) and 72 hours (72 h), respectively. […] The line and error bar indicate the average value and the standard error, **p<0.05, and ns refers to not significant.
(§2) The quantitative real-time PCR was performed with SYBER Green (Roche) and ABI7500 Realtime PCR system (Applied Biosystems).

The next data set deals with C2C12 cells. In words: Proliferation of C2C12 cells by MTT method. The data set is classed as cell-based, mouse. The following applies: for Relative cell proliferation: growth condition, day 1 as 1. The protocol:
In order to examine whether IBS008738 as an effect on the proliferation of cells, C2C12 cells were cultured under growth condition for 5 days in a medium added with IBS008738 at 0 μM (not added), 0.1 μM, 1 μM and 10 μM, respectively, and the number of the cells was counted each day by MTT (3-(4, 5-dimethylthiazol-2-yl)-2, 5-diphenyl tetrazolium bromide) method. The counting was performed three times, and the obtained numbers were relativized with the number of day 1 as 1.

In data set [1] the test system is connective tissue growth factor (CTGF). In words: Quantitative real-time PCR, CTGF. The following applies: C2C12 cells, 10 μM; for Normarized mRNA abundance, CTGF: listed as IBS008738. The data set is classed as cell-based, mouse. How it is done: as §1
(2) Evaluation was also performed under the same condition on the connective tissue growth factor (CTGF) and cyclin D1, as TAZ targets in epidermal cells.
as §2

The target of data set [2] is T1, interaction of TAZ and MyoD (Homo sapiens, UniProt Q9GZV5).
T1 construct: expressed in transfected cells; host or cells: HEK 293 (human embryonic kidney cells)
In words: Immunoprecipitation of FLAG-TAZ and HA-MyoD in HEK 293 cells. Format: cell-based. The conditions noted are these: HEK 293 expressing FLAG-TAZ and HA-MyoD. The protocol: (2) For analyzing the effects of IBS008738 on the interaction of TAZ and MyoD, immunoprecipitation was performed on human embryonic kidney cells (HEK 293) expressing FLAG-TAZ and HA-MyoD, with anti-FLAF M2 beads.

“And” between values parts separate entries of the source, which are not always exact repeats. Identical values can stand only once.

T1 sequence (Q9GZV5 whole entry): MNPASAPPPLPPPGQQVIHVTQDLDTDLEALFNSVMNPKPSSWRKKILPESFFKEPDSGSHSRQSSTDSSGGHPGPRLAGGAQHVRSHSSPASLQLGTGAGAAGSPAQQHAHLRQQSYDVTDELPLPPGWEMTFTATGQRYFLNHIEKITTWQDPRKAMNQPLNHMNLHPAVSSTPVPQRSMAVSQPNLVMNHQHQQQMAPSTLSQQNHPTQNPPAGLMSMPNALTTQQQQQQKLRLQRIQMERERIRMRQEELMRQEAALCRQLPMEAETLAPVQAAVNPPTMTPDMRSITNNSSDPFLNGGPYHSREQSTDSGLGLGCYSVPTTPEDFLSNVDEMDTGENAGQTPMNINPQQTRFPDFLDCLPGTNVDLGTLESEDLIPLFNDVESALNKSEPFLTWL

One may read the fold induction as the ratio of treated to control signal. For `Cc1ccc(-n2cnc(/N=C/N3CCOCC3)c2C(=O)c2ccccc2)cc1` [exemplary compound 1], in the data set with MyoD reporter, the fold induction at 10 µM amounted to 6.92. Also, the “EMT markers (fibronectin, E-cadherin, N-cadherin and vimentin) compared with DMSO” value in the data set with HCT116 cells is recorded as “no significant difference”. The “expression of TAZ (gene transcription) compared with DMSO” value with TAZ (24 h and 72 h) is on record as “did not change”. Also, the “Normarized mRNA abundance, TAZ” value was 0.88 and 0.94 with TAZ (differentiation condition 24 h); 1.44 and 1.36 and 1.41 in the data set on TAZ (differentiation condition 72 h). Further, the “effect on the proliferation of C2C12 cells” value in the data set on C2C12 cells (0.1 μM, 1 μM and 10 μM, 5 days) was “does not have an effect”. Besides, the Relative cell proliferation in the data set with C2C12 cells (0.1 μM, 24 h) is 1.00; in the data set with C2C12 cells (0.1 μM, 48 h, listed as IBS008738) it was 2.09 and 2.06 and 2.18; in the data set on C2C12 cells (0.1 μM, 72 h, listed as IBS008738), 5.37 and 4.74 and 4.59; in the data set with C2C12 cells (0.1 μM, 120 h, listed as IBS008738), 9.01 and 8.76 and 8.78; in the data set with C2C12 cells (1 μM, 24 h), 1.00; with C2C12 cells (1 μM, 48 h, listed as IBS008738), 2.41 and 2.05 and 2.07. Moreover, the Relative cell proliferation is 5.11 and 4.54 and 4.46 in the data set with C2C12 cells (1 μM, 72 h, listed as IBS008738); 9.13 and 8.80 and 8.79 with C2C12 cells (1 μM, 120 h, listed as IBS008738); 1.00 with C2C12 cells (10 μM, 24 h); 2.09 and 2.07 with C2C12 cells (10 μM, 48 h, listed as IBS008738); 4.70 and 4.90 and 4.92 with C2C12 cells (10 μM, 72 h, listed as IBS008738); 8.63 and 8.99 and 8.56 in the data set with C2C12 cells (10 μM, 120 h, listed as IBS008738). The “gene transcription of CTGF compared with DMSO” value in data set [1] (24 h and 72 h) was “no significant difference”. The “Normarized mRNA abundance, CTGF” value is 0.32 and 0.30 and 0.25 in data set [1] (differentiation condition 24 h); 1.76 and 2.01 and 2.04 in data set [1] (differentiation condition 72 h). Moreover, the “interaction of TAZ and MyoD compared with DMSO” value in data set [2] is given as “slightly promoted”.

The values above are taken from US10653672B2, “Myogenesis promotor, muscle atrophy inhibitor, medical composition and TAZ activator” (National University Corporation Tokyo Medical and Dental …, priority 2014, dated 2020).
